The source of these data is PubChem BioAssay AID1996.

Converted amounts (≈) assume the structure as drawn. Bounds are passed on as bounds.

Broadly, the kinetic solubility is the concentration staying in solution when a stock, usually in DMSO, is diluted into the medium.

For the data set the following is noted: buffer; pH 7.4; 200.0 µM.
`N#Cc1c(N)n(-c2ccc(C(=O)O)cc2)c2nc3ccccc3nc12` returned a solubility (kinetic) of 28.5 µg/mL (≈ 86.5 µM).

The molecule `CC(SCC(=O)Nc1ccccc1Br)c1nc2ccccc2c(=O)[nH]1` (stereo not drawn) gave a kinetic solubility of 3.2 µg/mL (≈ 7.65 µM). Compared with the last molecule, the solubility kinetic is about 8.9-fold lower. For the molecule `CCOc1ccc(OCCn2c(=S)[nH]c3ccccc32)cc1`, the kinetic solubility is 0.9 µg/mL (≈ 2.86 µM). In the case of `Nc1ccccc1C#Cc1ccc([N+](=O)[O-])cc1`, the kinetic solubility is 1.1 µg/mL (≈ 4.62 µM). This solubility kinetic and that of the molecule before are within 1.5-fold of each other. The value for `COc1ccc(C2Nc3ccccc3NC3=C2C(=O)CC(C)(C)C3)cc1O` (stereo not drawn) was 34.7 µg/mL (≈ 95.2 µM); that for `O=c1[nH]cnc(O)c1C(c1ccc(F)cc1)c1c(O)nc[nH]c1=O` was greater than 49.5 µg/mL. `Cc1ccc(C(=O)OCC(=O)NCc2ccc(F)cc2)o1`: the solubility (kinetic) was greater than 43.7 µg/mL.

In turn, `Cc1ccc(CC(=O)Nc2ccc(S(=O)(=O)N3CCOCC3)cc2)cc1` showed a solubility (kinetic) of 7.5 µg/mL (≈ 20 µM). The value for `CC(C(=O)OCC(=O)N1CCCCC1)N1C(=O)c2ccccc2C1=O` (stereo not drawn) was greater than 51.7 µg/mL; that for `O=C(Nc1ccc(Br)cc1Cl)c1ccc(OCC2CCCO2)cc1` (stereo not drawn) was 2.8 µg/mL (≈ 6.82 µM). `O=C(c1cc2ccccc2cc1O)N1CCCC(C(F)(F)F)C1` (stereo not drawn) gave a kinetic solubility greater than 48.5 µg/mL.

Consider `Cc1c(C(=O)OC(C)C(=O)N(C)Cc2ccccc2)oc2ccccc12` (stereo not drawn), for which the solubility (kinetic) was determined as 18.5 µg/mL (≈ 52.6 µM). With `COc1ccc(Cc2nnc(NCCO)[nH]c2=O)cc1` the figure was greater than 41.4 µg/mL; with `CCOC(=O)C1(Cc2cccc(F)c2)CCN(CC2CC2)CC1`, greater than 47.9 µg/mL. In turn, `CC[n+]1ccc(C(=O)NCc2ccccc2)cc1.[Cl-]` registered a solubility (kinetic) greater than 41.5 µg/mL.

Turning to `Cc1ccc2c(c1)C(c1ccccc1)=NCC(=O)N2`, the solubility (kinetic) is greater than 37.5 µg/mL. As for `Cc1ccc(CCNC(=O)CSCc2ccc(F)cc2)cc1`, the solubility (kinetic) is 13.5 µg/mL (≈ 42.5 µM). Consider `O=C(NC12CC3CC(CC(C3)C1)C2)c1c(Cl)cccc1Cl`, for which the kinetic solubility is less than 0.7 µg/mL.

On to `O=c1c2ccccc2ncn1-c1ccccc1[N+](=O)[O-]`, for which the solubility (kinetic) worked out at 35.9 µg/mL (≈ 134 µM). As to `CCN1CCN(c2ccc(N=Cc3ccccc3O)cc2)CC1`, the solubility (kinetic) came to 40.7 µg/mL (≈ 132 µM).

The molecule `OCCNc1nc(-c2ccccc2)c2cc(Br)ccc2n1` came in with a kinetic solubility of 24.2 µg/mL (≈ 70.3 µM). The value for `CC(C)(C)c1ccc(S(=O)(=O)N2CCN(C3CCCC3)CC2)cc1` was less than 0.4 µg/mL; that for `Cc1cc(C(=O)O)ccc1NCc1cccnc1` was 36 µg/mL (≈ 149 µM).

`CC1CCCN(C(=O)c2ccc3c(c2)OCO3)C1` (stereo not drawn) gave a solubility (kinetic) greater than 37.1 µg/mL.

`C#CCSc1nc2sc3c(c2c(=O)n1C)CCC3` showed a solubility (kinetic) of less than 0.3 µg/mL. The value for `Cc1ccc2ccc(S(=O)(=O)NCc3ccco3)cc2c1` was 37 µg/mL (≈ 123 µM). `COc1ccccc1C(C[N+](=O)[O-])c1c[nH]c2ccccc12` (stereo not drawn) registered a kinetic solubility of 9 µg/mL (≈ 30.4 µM). With `O=C(Nc1cc(Cl)ncn1)c1ccccc1`, the solubility (kinetic) came out at 34.2 µg/mL (≈ 146 µM). With `O=C1CN(C(=O)COC(=O)c2c(F)cccc2Cl)c2ccccc2N1` the figure was 50 µg/mL (≈ 138 µM). For the molecule `COC(=O)c1sccc1NC(=O)Nc1ccc(OC)cc1`, the solubility (kinetic) is 40 µg/mL (≈ 131 µM). The solubility kinetic values of the last two molecules are within 1.5-fold of each other. With `O=C1CSCC(=O)N1Cc1ccc(Cl)cc1Cl` the figure was 38.2 µg/mL (≈ 132 µM); with `Cc1nc(/C(N)=N/OC(=O)Cc2ccccc2)no1`, 24.4 µg/mL (≈ 93.8 µM); with `CCOC(=O)C1CCN(Cc2cc(Cl)c3ccccc3c2O)CC1`, 6.2 µg/mL (≈ 17.8 µM).

Turning to `CC(=O)c1sc(Nc2cccc3ccccc23)nc1C.Cl`, the solubility (kinetic) is 5.2 µg/mL. The solubility kinetic values of the last two molecules are within 1.5-fold of each other. As to `O=C(COC(=O)CNC(=O)c1ccccc1)NCCCc1ccccc1`, the kinetic solubility was found to be 52.3 µg/mL (≈ 148 µM). The value for `CCCOc1cccc(C(=O)NCCNC(=O)c2ccco2)c1` was greater than 47.5 µg/mL; that for `Cn1c(N)c(C(=O)COC(=O)c2cc3ccccc3cc2O)c(=O)n(C)c1=O` was 3.6 µg/mL (≈ 9.39 µM); that for `Cc1ccnc(NS(=O)(=O)c2ccc3c(c2)CCO3)c1` was 10.4 µg/mL (≈ 35.8 µM). With `Cn1c(N2CCCC2)nc2c1c(=O)[nH]c(=O)n2C` the figure was greater than 37.4 µg/mL. For `COc1c(C)cc(C(=O)C2CCCN(C3CCOCC3)C2)cc1C` (stereo not drawn), the kinetic solubility is greater than 49.7 µg/mL. With `CCCCNC(=S)N1CCN(c2nc3ccccc3s2)CC1` the figure was 0.9 µg/mL (≈ 2.69 µM); with `Cc1cc2cc(CNC(=O)COc3ccccc3)ccc2n1C`, 5.2 µg/mL (≈ 16.9 µM); with `O=C(CN1C(=O)NC(CCc2ccccc2)C1=O)Nc1cccc(Br)c1` (stereo not drawn), 5.2 µg/mL (≈ 12.5 µM). With `O=C1CCCN1CCCNS(=O)(=O)c1ccccc1` the figure was greater than 42.4 µg/mL; with `COCCCNC(=O)C(C)N1c2cccc3cccc(c23)S1(=O)=O` (stereo not drawn), 50.2 µg/mL (≈ 144 µM). With `CCN(Cc1nc(-c2ccc(OC)cc2)no1)C(=O)c1ccoc1C` the figure was 41.1 µg/mL (≈ 120 µM); with `O=C(CCn1c(=O)oc2ccccc21)NCCC1=CCCCC1`, greater than 47.2 µg/mL; with `Cc1ccc(CSCC(=O)NCc2ccc(F)cc2)cc1`, 23.2 µg/mL (≈ 76.5 µM). On to `CC(=O)Nc1ccc(NC(=O)C(C)OC(=O)[C@@H]2CCCN2C(=O)c2cccs2)cc1` (stereo partly drawn), for which the solubility (kinetic) was greater than 64.4 µg/mL.

In turn, `COc1ccc(C(=O)NCCCNC(=O)c2ccc(C)nc2)cc1` yielded a kinetic solubility greater than 49.1 µg/mL. For the molecule `NS(=O)(=O)c1ccc(NC(=O)/C=C/c2cccc(Cl)c2)cc1`, the kinetic solubility was 1.4 µg/mL (≈ 4.16 µM). With `Cn1c(=O)oc2cc(S(=O)(=O)NCc3ccc(C(=O)O)cc3)ccc21` the figure was greater than 54.4 µg/mL. With `COc1ccccc1CC(=O)NCCCc1ccccc1` the figure was greater than 42.5 µg/mL; with `CN(C)S(=O)(=O)c1cccc(NC(=O)CCNC(=O)Nc2ccccc2)c1`, greater than 58.6 µg/mL; with `CCC(Sc1ncccc1Nc1ccccn1)C(=O)O` (stereo not drawn), greater than 43.4 µg/mL. The molecule `CCC(=O)Nc1ccc2c(c1)ncn2-c1ccccc1C` registered a solubility (kinetic) greater than 41.9 µg/mL.

Molecule `Cc1ccc2[nH]c(=O)c(CC(=O)O)c(-c3ccccc3)c2c1` had a kinetic solubility greater than 44 µg/mL. `O=C(Nc1nc2cc3c(cc2s1)OCO3)C1CCCCC1`: the solubility (kinetic) is less than 0.3 µg/mL. For the molecule `CN1CCC(NC(=O)c2ccncc2)CC1`, the kinetic solubility was found to be 29.4 µg/mL (≈ 134 µM).

On to `CCCN(CCC)C(=O)CC(c1ccccc1)C1CCOC(C)(C)C1` (stereo not drawn), for which the solubility (kinetic) amounted to 50.3 µg/mL (≈ 146 µM). With `CCOc1cc(C(=O)NC2CC(C)(C)NC(C)(C)C2)cc(OCC)c1OCC`, the kinetic solubility is greater than 58.9 µg/mL. `Cc1ccccc1Nc1nc(N)nc(CSc2nncn2C)n1` gave a solubility (kinetic) greater than 49.3 µg/mL. As to `CC(=O)N1CCN(C(=O)c2cc(C)oc2C)CC1`, the kinetic solubility is greater than 37.5 µg/mL. The value for `O=C(c1ccc(=O)[nH]c1)N1CCCc2ccccc21` was greater than 38.1 µg/mL.

The molecule `CC1(C)c2ccccc2N(CC(N)=O)C12C=Cc1ccccc1O2` (stereo not drawn) showed a kinetic solubility of 12.6 µg/mL (≈ 39.3 µM). With `COc1ccc(C2(C)NC(=O)N(CC(=O)NC3(C#N)CCCCC3)C2=O)cc1` (stereo not drawn) the figure was greater than 57.7 µg/mL; with `O=C(NCCc1ccccn1)c1ccc(OC(F)F)cc1`, greater than 43.8 µg/mL; with `O=C(c1c[nH]c2ccccc12)N1CCN(c2ccccc2)CC1`, greater than 45.8 µg/mL. The value for `CC(=O)c1c(C)nc(Nc2nc3ccccc3s2)nc1C` was 0.2 µg/mL (≈ 0.67 µM); that for `Cc1ccc(NC(=O)COC(=O)C2(CC(=O)NC(C)C)CCCC2)cc1C` was 3.6 µg/mL (≈ 9.61 µM). The value for `Cc1c([N+](=O)[O-])c(C(=O)NC2CCCCC2)nn1C` was greater than 39.9 µg/mL; that for `COc1ccc(N2CC(C(=O)Nc3cc(C)ccn3)CC2=O)cc1` (stereo not drawn) was greater than 48.8 µg/mL. With `O=C(CN1C(=O)NC2NC(=O)NC21)N/N=C/c1ccc(F)cc1` (stereo not drawn), the kinetic solubility is greater than 48 µg/mL. With `COc1ccccc1OCCCCN1CCCCC1` the figure was 36.1 µg/mL (≈ 137 µM); with `COc1ccc(Cl)cc1C(=O)OCC(=O)N1CCCC(C)C1` (stereo not drawn), greater than 48.9 µg/mL; with `COc1ccc(NC(=O)c2cc(-c3ccccn3)nc3ccccc23)c(OC)c1`, 3.8 µg/mL (≈ 9.86 µM). With `Cc1ccc(S(=O)(=O)N2CCOCC2)cc1NC(=O)c1ccc(F)cc1F` the figure was 8.2 µg/mL (≈ 20.7 µM). `Cc1cc(C)nc(NC(=S)NC(=O)c2ccccc2)n1` registered a solubility (kinetic) of 5.8 µg/mL (≈ 20.3 µM). In turn, `Cc1nc2ccc(NC(=O)[C@H](C)N3C(=O)C4CC=CCC4C3=O)cc2s1` (stereo partly drawn) came in with a solubility (kinetic) greater than 55.4 µg/mL. With `Cc1ccccc1CC(=O)NC1CCN(C)CC1` the figure was greater than 37 µg/mL; with `CCOC(=O)CC(=O)CSc1nccc(-c2cccnc2)n1`, greater than 47.6 µg/mL. As for `O=C(Nc1ccc(CN2CCOCC2)cc1)c1ccc(Cl)cc1`, the kinetic solubility turned out to be 9.2 µg/mL (≈ 27.8 µM).

`Cc1ccc(-c2cnco2)cc1`: the solubility (kinetic) was less than 0.3 µg/mL. With `Cl.OCCN1CCN(c2nc3ccccc3nc2-c2ccccc2)CC1` the figure was greater than 55.6 µg/mL; with `CC(C)C1CC(C(=O)Nc2ccccc2)C(=O)O1` (stereo not drawn), 34.9 µg/mL (≈ 141 µM); with `CCCn1nc(C(=O)NC2CC2)c2ccccc2c1=O`, greater than 40.7 µg/mL. `CC(C)(C)NC(=O)N1CCN(c2nc3ccc(Cl)cc3s2)CC1` had a kinetic solubility of 1.7 µg/mL (≈ 4.82 µM). As to `O=C(c1ccc(Cl)c(S(=O)(=O)N2CCOCC2)c1)N1CCc2ccccc2C1`, the kinetic solubility is greater than 63.1 µg/mL. With `Cc1ccccc1CNc1ncnc2cc(Cl)ccc12` the figure was 0.5 µg/mL (≈ 1.76 µM). With `CN(C(=O)Oc1ccc(F)cc1)c1ccccc1` the figure was 24 µg/mL (≈ 97.9 µM); with `CC1=CC(C)(C)N(C(=O)CN2C(=O)CCC2=O)c2ccccc21`, greater than 46.9 µg/mL. With `CC(C)OP(=O)(O)NC(=O)c1ccccc1` the figure was greater than 36.5 µg/mL. On to `CC(=O)Nc1ccc(C2C(=O)c3ccccc3C2=O)cc1`, for which the kinetic solubility was found to be 39 µg/mL (≈ 140 µM). Consider `OC(C#CCN1CCCCCC1)(c1ccccc1)c1cccnc1` (stereo not drawn), for which the kinetic solubility was greater than 48.1 µg/mL. The value for `Cc1cc(C)c(S(=O)(=O)Nc2ncccc2C)c(C)c1` was 2.1 µg/mL (≈ 7.23 µM); that for `Cc1ccc(/C=C2\C(=O)NC(=S)N(c3ccc(F)cc3)C2=O)o1` was 45.9 µg/mL (≈ 139 µM); that for `CCOC(=O)C(=CNc1nc2ccc(C(=O)OCC)cc2s1)C(=O)OCC` was less than 0.4 µg/mL. The value for `COc1ccc(C2=NOC(C(=O)Nc3ccc4c(c3)OCO4)C2)cc1` (stereo not drawn) was 1.6 µg/mL (≈ 4.7 µM); that for `Cc1cc(=O)[nH]c2c(C)cc(S(=O)(=O)Nc3ccc(O)cc3)cc12` was 49.7 µg/mL (≈ 144 µM); that for `CSc1ncccc1C(=O)OCC(=O)c1ccc(C)s1` was 3.5 µg/mL (≈ 11.4 µM).

`COc1ccc(N2CCN(CC(=O)NC(=O)NC(C)(C)C)CC2)cc1` gave a solubility (kinetic) of 51.3 µg/mL (≈ 147 µM). Molecule `COc1ccc(NC(=S)NCc2ccc3c(c2)OCO3)cc1` yielded a kinetic solubility greater than 47.5 µg/mL. With `Cc1cc(C)c(CN2CCC(CO)(CCOc3ccccc3)CC2)cc1C` the figure was 38.6 µg/mL (≈ 105 µM).
